Results as given in patent publication US11773113B2, “Crystal forms of crisaborole in free form and preparation method and use thereof” (Anacor Pharmaceuticals, Inc., priority 2016, dated 2023).
Values after ≈ are worked out from the molar mass of the structure shown.

Legend:
Type in all cases: physicochemical
[1] = Study of moisture absorption, dynamic vapor sorption (DVS) test; conditions: for Moisture absorption characteristic according to Chinese Pharmacopoeia (2015): 25° C.±1° C.; for Moisture absorption characteristic according to Chinese Pharmacopoeia (2015) / Weight increase of 80% relative humidity: 80% relative humidity; for Weight increase of 80% relative humidity / Weight increase of 95% relative humidity: DVS, 25° C.
Method: The dynamic vapor sorption (DVS) pattern as described in the invention was collected on an intrinsic dynamic vapor sorption meter as produced by Surface Measurement Systems Ltd. The dynamic vapor sorption method has the following parameters: Temperature: 25° C., Loading gas, flowing speed: N2, 200 ml/min, Variation in mass per time: 0.002%/minute, Relative humidity range: 0% RH-95% RH. […] The obtained results were shown in Table 13: With regard to the descriptions for the moisture absorption characteristic and the definition for the increased weight of moisture absorption (Guidelines for the Moisture Absorption Tests of Drugs in the Appendix of Chinese Pharmacopoeia (2015), Experimental conditions: 25° C.±1° C., 80% relative humidity): […]

[2] = Polarizing microscope (PLM) patterns; conditions: from PLM patterns FIG. 29-31
[3] = Study of particle size distribution (PSD, laser particle size analytic meter); conditions: for Particle size distribution (PSD pattern): from PSD patterns FIG. 26-28; for D10 / D50 (median size) / D90: volume distribution; for D10 / D50 (median size) / D90 / MV (average particle size as calculated in terms of the volume): dispersion medium Isopar G; for MV (average particle size as calculated in terms of the volume): wet process
Method: The particle size distribution (PSD) results as described in the invention were collected on a S3500-type laser particle size analytic meter as produced by Microtrac Company. The Microtrac S3500 is equipped with a SDC (Sample Delivery Controller) feeding system. The test was conducted via a wet process, and the dispersion medium as used in the test was Isopar G. The laser particle size analytic meter has the following parameters: [table]

[4] = Study of dynamic solubility (saturated solution, HPLC); conditions: for Solubility assessment: FaSSIF, FeSSIF, SGF and water; for solubility at 1 h / solubility at 24 h / solubility at 4 h: thermodynamic from solid
From the text: The high performance liquid chromatography (HPLC) data were collected in an Agilent 1260, and the used detector was a diode array detector (DAD). The HPLC method as described in the invention has the following parameters: […]

[5] = Study of mechanical stability (ground by hand for 5 minutes, XRPD); conditions: ground for 5 minutes by hand in a mortar
[6] = Study of long-term and acceleration stabilities (XRPD); conditions: both 25° C./60% RH and 40° C./75% RH, 3 months

Compound	Moisture absorption characteristic according to Chinese Pharmacopoeia (2015) [1]	Weight increase of 80% relative humidity [1] [%]	Weight increase of 95% relative humidity [1] [%]	Particle sizes of the particles (PLM pattern) [2]	Particle size distribution (PSD pattern) [3]	D10 [3] [μm]	D50 (median size) [3] [μm]	D90 [3] [μm]	MV (average particle size as calculated in terms of the volume) [3] [μm]	Solubility ([4]; FaSSIF (pH = 6.5), 4 h) [µg/mL]	Solubility assessment [4]	Solubility ([4]; FeSSIF (pH = 5.0), 1 h) [µg/mL]	Solubility ([4]; H2O, 4 h) [µg/mL]	Solubility ([4]; SGF (pH = 1.8), 1 h) [µg/mL]	Solubility ([4]; SGF (pH = 1.8), 24 h) [µg/mL]	Stability of the crystal form on storage [6]	Solubility ([4]; FaSSIF (pH = 6.5), 1 h) [µg/mL]	Solubility ([4]; FaSSIF (pH = 6.5), 24 h) [µg/mL]	Solubility ([4]; FeSSIF (pH = 5.0), 4 h) [µg/mL]	Solubility ([4]; FeSSIF (pH = 5.0), 24 h) [µg/mL]	further results
N#Cc1ccc(Oc2ccc3c(c2)COB3O)cc1 [Crystal form I, 4-[(1,3-dihydro-1-hydroxyl-2,1-benzoxaborolane-5-yl)oxy]benzonitrile]	almost have no moisture absorption	0.14	0.32	homogeneous	homogeneous	1.69	5.52	20.35	9.62	7 (≈ 27.9 µM)	in line with medicinal requirements	44 (≈ 175 µM)	5 (≈ 19.9 µM)	11 (≈ 43.8 µM)	38 (≈ 151 µM)	maintain their stability	–	–	–	–	solubility at 1 h ([4]; fasted state simulated intestinal fluid (FaSSIF), pH 6.5, fassif, FaSSIF (pH = 6.5), 1 h): 6 µg/mL (≈ 23.9 µM); solubility at 24 h ([4]; fasted state simulated intestinal fluid (FaSSIF), pH 6.5, fassif, FaSSIF (pH = 6.5), 24 h): 12 µg/mL (≈ 47.8 µM); solubility at 4 h ([4]; fed state simulated intestinal fluid (FeSSIF), pH 5, fessif, FeSSIF (pH = 5.0), 4 h): 59 µg/mL (≈ 235 µM); solubility at 24 h ([4]; fed state simulated intestinal fluid (FeSSIF), pH 5, fessif, FeSSIF (pH = 5.0), 24 h): 59 µg/mL (≈ 235 µM); solubility at 4 h ([4]; simulated gastric fluid (SGF), pH 1.8, simulated gastric fluid, SGF (pH = 1.8), 4 h): 37 µg/mL (≈ 147 µM); solubility at 1 h ([4]; water, H2O, 1 h): 4 µg/mL (≈ 15.9 µM); solubility at 24 h ([4]; water, H2O, 24 h): 6 µg/mL (≈ 23.9 µM); Final crystal form [5]: Crystal form I; Final crystal form ([5]; listed as crystal form I): not changed
N#Cc1ccc(Oc2ccc3c(c2)COB3O)cc1 [Crystal form II, 4-[(1,3-dihydro-1-hydroxyl-2,1-benzoxaborolane-5-yl)oxy]benzonitrile]	almost have no moisture absorption	0.13	0.32	homogeneous	homogeneous	8.24	20.46	40.42	23.13	5 (≈ 19.9 µM)	in line with medicinal requirements	18 (≈ 71.7 µM)	1 (≈ 3.98 µM)	10 (≈ 39.8 µM)	15 (≈ 59.7 µM)	maintain their stability	11 (≈ 43.8 µM)	8 (≈ 31.9 µM)	49 (≈ 195 µM)	55 (≈ 219 µM)	Solubility ([4]; H2O, 1 h): 3 µg/mL (≈ 11.9 µM); Solubility ([4]; H2O, 24 h): 6 µg/mL (≈ 23.9 µM); Solubility ([4]; SGF (pH = 1.8), 4 h): 26 µg/mL (≈ 104 µM)
N#Cc1ccc(Oc2ccc3c(c2)COB3O)cc1 [Crystal form III, 4-[(1,3-dihydro-1-hydroxyl-2,1-benzoxaborolane-5-yl)oxy]benzonitrile]	almost have no moisture absorption	0.09	0.15	–	–	21.68	163.0	903.1	289.0	10 (≈ 39.8 µM)	in line with medicinal requirements	25 (≈ 99.6 µM)	4 (≈ 15.9 µM)	33 (≈ 131 µM)	40 (≈ 159 µM)	maintain their stability	8 (≈ 31.9 µM)	12 (≈ 47.8 µM)	67 (≈ 267 µM)	74 (≈ 295 µM)	Solubility ([4]; H2O, 1 h): 5 µg/mL (≈ 19.9 µM); Solubility ([4]; H2O, 24 h): 6 µg/mL (≈ 23.9 µM); Solubility ([4]; SGF (pH = 1.8), 4 h): 34 µg/mL (≈ 135 µM)
N#Cc1ccc(Oc2ccc3c(c2)COB3O)cc1 [Crystal form IV, 4-[(1,3-dihydro-1-hydroxyl-2,1-benzoxaborolane-5-yl)oxy]benzonitrile]	–	1.53	4.90	homogeneous	homogeneous	13.43	33.68	99.36	52.95	17 (≈ 67.7 µM)	in line with medicinal requirements	62 (≈ 247 µM)	6 (≈ 23.9 µM)	31 (≈ 123 µM)	26 (≈ 104 µM)	–	9 (≈ 35.8 µM)	13 (≈ 51.8 µM)	61 (≈ 243 µM)	56 (≈ 223 µM)	Moisture absorption characteristic according to Chinese Pharmacopoeia (2015) ([1]; listed as crystal IV): slight moisture absorption; Solubility ([4]; H2O, 24 h): 4 µg/mL (≈ 15.9 µM); Solubility ([4]; SGF (pH = 1.8), 4 h): 27 µg/mL (≈ 108 µM); Final crystal form [5]: Crystal form IV; Final crystal form ([5]; listed as crystal form IV): not changed
